Experiments:
Type in all cases: cell-based, human
high-fat HepG2 cells = assay: Cellular alanine aminotransferase (ALT) content, ALT kit; settings: for level of ALT in a high fat cell: FIGS. 4C, 5C; for level of ALT, compared with control group and low dose group: medium and high doses
Procedure: 2. The culture, model establishment and experimental steps of the cells were operated according to the above steps. The anthocyanin compound mother liquor was diluted to 0, 0.1, 1, 10, 50, and 100 μM to treat the high-fat HepG2 cells, respectively.
3. The culture solution was pipetted off, gently washed with PBS for 3 times, and added with trypsin to digest the cells for 1 min The cell suspension was pipetted into a 1.5 mL sterile EP tube, centrifuged at 1000 rpm for 10 minutes, the supernatant was discarded, the pellet was added with an appropriate amount of PBS, ultrasonically crushed under the condition of an ice-water bath, and the prepared homogenate was not centrifuged and was ready for determination.
The intracellular alanine aminotransferase (ALT) content was determined according to the operating instructions of an ALT kit.

HepG2 cells = assay: MTT cell viability experiment, effect of treatment time (oleic acid NAFLD cell model); settings: for cell viability among several other groups of treatment time: other treatment times (0, 12, 24, 48 h); for cell viability: treated for 6 h, FIG. 3; for cytotoxicity with the increase in time: treatment up to 48 h
Procedure: The HepG2 cells were seeded into a 96-well culture plate at 1×10^4 cells per well, incubated in a DMEM culture medium containing 10% fetal bovine serum for 12 h until complete confluence of the cells, and then the culture medium was replaced by respective concentrations of 0, 0.5, 1, 1.5, 2, 2.5, 3, 3.5, 4 mM of oleic acid formulated with a serum-free culture medium to treat the cells for 0, 24, 48, and 72 hours, with 4 replicate wells being set for each concentration. After the completion of the incubation, 10 μL of a freshly prepared MTT solution at a final concentration of 5 mg/mL was added into each well and the culture was continued for 4 h. Then, the liquid in the culture well was pipetted off to terminate the reaction. Each well was added with 100 μL of DMSO, and shaken fully on a plate shaker for […] such that the crystalline was fully dissolved, and an A490 absorbance was measured on a microplate reader. The cell proliferation viability was calculated according to the following formula.
Cell proliferation viability (%)=(the OD of drug group/the OD of blank group)×100%
1. The culture, model establishment and experimental steps of the cells were operated according to 1.2.1. When the cells were cultured to the confluence of 70%, the cells were treated with 0.5 mM for 24 h to establish a cell model of nonalcoholic fatty liver disease. The anthocyanin compound mother liquor was diluted to 10 μM to treat the cells for 0, 6, 12, 24, and 48 h. The MTT cell proliferation viability experiment determined the optimal dosing time.

Bcl-1 = assay: Western blotting, protein expression in oleic acid induced HepG2 cells; settings: high dose group
Procedure: (§1) The culture, model establishment and drug treatment manners of the cells were operated according to 1.2.3. After completion, cells were collected, cytoplasmic proteins were extracted, and protein electrophoresis was conducted after quantification. Particularly the following methods were used:
(§2) When the cell confluence reached 70%, 0.5 mM oleic acid was added to treat the cells for 24 h. After completion, the cells were collected and the cytoplasmic protein was extracted, and the protein electrophoresis was conducted after quantification. The electrophoresis method was as follows:
(§3) After cell culture was completed, the culture plate was taken out, the culture medium in the well was discarded, the pellet was washed twice with PBS, placed onto an ice bath, and added with 100 μL of a protein lysis buffer (RIPA) (PMSF was added into the cell lysis buffer at 1:1000 within few minutes before the use, with a final concentration of 1 mM) per well. After the cells were lysed for about […], the cells were scraped off with a cell scraper, pipetted into a 1.5 mL centrifuge tube (which could be crushed with an ultrasonic cell disruptor for 3-5 times), then centrifuged at 12,000 rpm under 4° C. for 15-20 mM. The supernatant was taken and transferred into a new centrifuge tube for protein quantification or storage at −80° C.
(§4) Theprotein content was determined by a BCA method, and the operation method was carried out according to the instructions of the kit. After the protein concentration was measured, the protein sample was added with a 5× loading buffer and mixed uniformly at 1:4, then subjected to water bath at 100° C. for […] (entangling with a sealing film to prevent bouncing off), and stored at 4° C.
(§5) The specific operation method of protein electrophoresis was in accordance with the relevant references. Since each of the molecular weight of the target proteins was within 10-80 KDa except for FASN (the separation gel was prepared according to the following table), the separation gel concentration was selected to be 10%, and the concentration of the FASN protein separation gel was selected to be 6%.
(§6) A spacer gel was formulated according to the following table, and sample loading was conducted. After completion, electrophoresis should be conducted as soon as possible, where concentration was conducted at 80 v for 30 min, and then electrophoresis was conducted at 120 v until the front edge ran to the lower edge of the separation gel, and the electrophoresis was stopped.
3. […]

p62 = assay: as above; settings: high dose group
Procedure: as §1, §2, §3, §4, §5, §6
3. […]

| SMILES | level of ALT in a high fat cell (high-fat HepG2 cells) | level of ALT, compared with control group and low dose group (high-fat HepG2 cells) | cell viability among several other groups of treatment time (HepG2 cells) | cell viability (HepG2 cells) | cytotoxicity with the increase in time (HepG2 cells) | protein expression of Bcl-1 (Bcl-1) | protein expression of p62 (p62) |
| --- | --- | --- | --- | --- | --- | --- | --- |
| COc1cc(-c2[o+]c3cc(O)cc(O)c3cc2O[C@@H]2O[C@H](CO)[C@@H](O)[C@H](O)[C@H]2O)cc(OC)c1O [malvidin-3-O-β-D glucoside] | reduce | very significant reduction | no significant difference | significantly increased | not cytotoxic | inhibition trend | inhibition trend |
| COc1cc(-c2[o+]c3cc(O)cc(O)c3cc2O[C@@H]2O[C@H](CO)[C@@H](O)[C@H](O)[C@H]2O)cc(O)c1O [petunidin-3-O-β-D glucoside] | reduce | very significant reduction | no significant difference | significantly increased | not cytotoxic | inhibition trend | inhibition trend |
